The text below walks through data of PubChem BioAssay (NCI).

SMILES strings stand for the structures. Values joined by “and” are separate entries in the source; they are usually repeats but may differ in a detail not shown here. Identical values can stand only once.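 Each compound was tested at five concentrations against cells in 96-well plates for 48 hours. At the GI50, growth is halved. Definition used: TGI = concentration required for complete inhibition of growth.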

Some test systems named below: SW-620 colon; LOX IMVI melanoma; SF-295 CNS; KM12 colon; OVCAR-3 ovarian; SF-539 CNS; NCI-H522 lung; DU-145 prostate; T-47D breast.
Holding throughout (assay): DTP human tumour cell line panel, 48 h

For `CCCCOC(=O)NC(=O)c1cn(CCCOC(=O)CCCCCCCCC(=O)OCCCn2cc(C(=O)NC(=O)OCCCC)c(=O)[nH]c2=O)c(=O)[nH]c1=O`, the TGI in the experiment on SW-620 colon, in the experiment with LOX IMVI melanoma, in the experiment on SF-295 CNS, with KM12 colon, in the experiment on OVCAR-3 ovarian and in the experiment with SF-539 CNS was greater than 100 µM each time.

As to `COc1ccc(NC(=O)C(=O)C(C(=O)c2ccccc2)C2OC(=O)c3ccccc32)c([N+](=O)[O-])c1` (configuration not stated), the concentration for total growth inhibition (TGI) in the experiment on SW-620 colon, in the experiment with LOX IMVI melanoma, in the experiment on SF-295 CNS, with NCI-H522 lung, with KM12 colon and with SF-539 CNS was greater than 100 µM each time.

As to `CCCCCCCCC[C@@H]1CC(=O)OCC2OC(O[C@H](CCCCCCCCC)CC(=O)OCC3OC(O[C@H](CCCCCCCCC)CC(=O)OCC4OC(O1)C(O)C(O)C4O)C(O)C(O)C3O)C(O)C(O)C2O` (some centres not stated), the TGI with SW-620 colon was determined as 17.8 µM; in the experiment with LOX IMVI melanoma, 11.7 µM; in the experiment with SF-295 CNS, 27.1 µM; in the experiment on NCI-H522 lung, 23.5 µM; in the experiment with KM12 colon, 20.2 µM; in the experiment on OVCAR-3 ovarian it was 32.1 µM. The same compound displayed a TGI in the experiment with SF-539 CNS of 23.2 µM.

On to `COc1cc(/C=C(\C#N)C(=O)c2ccccc2)ccc1OCc1ccccc1`, for which the concentration for total growth inhibition (TGI) with SW-620 colon, in the experiment on LOX IMVI melanoma, in the experiment on SF-295 CNS, in the experiment with NCI-H522 lung, with KM12 colon and with OVCAR-3 ovarian was greater than 100 µM each time. This compound registered a total growth inhibition concentration (TGI) with SF-539 CNS greater than 100 µM.

On to `CCNC(=O)CCN(C(=O)O)S(=O)(=O)c1ccc(NC(=O)c2ccccc2)cc1`, for which the TGI was 32 µM with SW-620 colon; 43.8 µM in the experiment on LOX IMVI melanoma; greater than 100 µM in the experiment on SF-295 CNS; greater than 100 µM in the experiment on NCI-H522 lung; greater than 100 µM with KM12 colon; greater than 100 µM in the experiment on OVCAR-3 ovarian. Further, in the experiment with SF-539 CNS, the total growth inhibition concentration (TGI) is greater than 100 µM.

As to `COc1ccc(-c2onc(-c3ccc([N+](=O)[O-])cc3)c2C2=NCCN2)cc1`, the TGI in the experiment on SW-620 colon, in the experiment with LOX IMVI melanoma, in the experiment with SF-295 CNS, in the experiment with KM12 colon, in the experiment on OVCAR-3 ovarian and with SF-539 CNS was greater than 100 µM throughout.

On to `O=[N+]([O-])c1cccc(/C=N\NS(=O)(=O)c2ccc(Cl)cc2)c1O`, for which the concentration for total growth inhibition (TGI) in the experiment with SW-620 colon, in the experiment with LOX IMVI melanoma, in the experiment on SF-295 CNS, in the experiment on NCI-H522 lung, with KM12 colon and with OVCAR-3 ovarian was greater than 100 µM throughout. Also, in the experiment with SF-539 CNS, the concentration for total growth inhibition (TGI) is greater than 100 µM.

Consider `Cc1c[nH]c2c(O)cc3c(c12)[C@H](CCl)CN3C(=O)c1cc2cc(NC(=O)Nc3ccc4[nH]c(C(=O)N5C[C@@H](CCl)c6c5cc(O)c5[nH]cc(C)c65)cc4c3)ccc2[nH]1`, for which the GI50 in the experiment on SW-620 colon was 0.0068 µM; with LOX IMVI melanoma it was 0.00117 µM; in the experiment on NCI-H522 lung, 4.49 nM and 8.9e-07 µg/mL; in the experiment on DU-145 prostate it was 0.000923 µM; in the experiment with T-47D breast, 0.00671 µM. Further, the concentration for total growth inhibition (TGI) was 20.2 nM and 2e-06 µg/mL with NCI-H522 lung; 15 nM and 28.1 µM and 3e-06 µg/mL in the experiment with KM12 colon; 43.2 µM in the experiment with OVCAR-3 ovarian; 0.0911 µM and 0.0461 µM in the experiment with T-47D breast.

Take `CC(=O)[O-].CC(=O)[O-].[Pt+2].c1cscn1.c1cscn1`: the GI50 with SW-620 colon was 47.5 µM; with LOX IMVI melanoma, 65.7 µM; with SF-295 CNS, greater than 100 µM; in the experiment with NCI-H522 lung it was 20.8 µM; in the experiment with KM12 colon it was greater than 100 µM; with DU-145 prostate, 22.9 µM. Moreover, the figures for the GI50 with OVCAR-3 ovarian, with SF-539 CNS and with T-47D breast were greater than 100 µM, 48.3 µM and 62 µM, respectively. The TGI in the experiment with SW-620 colon was greater than 100 µM; with LOX IMVI melanoma it was greater than 100 µM; with SF-295 CNS, greater than 100 µM; in the experiment on NCI-H522 lung, 42.2 µM; in the experiment on KM12 colon, greater than 100 µM; with DU-145 prostate, greater than 100 µM. Also, the TGI with OVCAR-3 ovarian, in the experiment with SF-539 CNS and with T-47D breast was greater than 100 µM in each case.

In the case of `CCCCc1c2c(nc3c1CCC/C3=C\c1ccccc1)C(=O)CCC2`, the TGI turned out to be 45 µM with SW-620 colon; 34.1 µM in the experiment on LOX IMVI melanoma; 40.3 µM in the experiment with SF-295 CNS; 29.5 µM in the experiment with NCI-H522 lung; 51.8 µM with KM12 colon; 33.4 µM with OVCAR-3 ovarian. Further, in the experiment on SF-539 CNS, the TGI was 33.2 µM.

On to `O=c1c2c(nc3n1CCS3)[nH]c1ccccc12`, for which the GI50 with SW-620 colon is greater than 100 µM; with LOX IMVI melanoma, 59.5 µM; with SF-295 CNS, greater than 100 µM; in the experiment on NCI-H522 lung, greater than 100 µM; with KM12 colon it was greater than 100 µM; in the experiment on DU-145 prostate it was greater than 100 µM. For the same compound, the values for the GI50 with OVCAR-3 ovarian, with SF-539 CNS and in the experiment with T-47D breast were 95.4 µM, greater than 100 µM and greater than 100 µM, respectively. For the same compound, the TGI in the experiment with SW-620 colon, in the experiment with LOX IMVI melanoma, in the experiment with SF-295 CNS, in the experiment on NCI-H522 lung, in the experiment with KM12 colon and in the experiment with DU-145 prostate was greater than 100 µM each time. For the same compound, the TGI in the experiment on OVCAR-3 ovarian, with SF-539 CNS and in the experiment on T-47D breast was greater than 100 µM throughout.

As to `O=C1OC(CC(=O)c2ccc(Cl)c(Cl)c2)C(Cl)=C1Cl` (configuration not stated), the total growth inhibition concentration (TGI) is greater than 100 µM with SW-620 colon; greater than 100 µM in the experiment with LOX IMVI melanoma; greater than 100 µM in the experiment on SF-295 CNS; 72.6 µM in the experiment on NCI-H522 lung; greater than 100 µM in the experiment with KM12 colon; greater than 100 µM in the experiment on OVCAR-3 ovarian. Besides, the TGI in the experiment on SF-539 CNS was greater than 100 µM.

As to `NC(=O)C(=Cc1ccc(C(O)P(=O)(O)O)cc1)C(N)=O` (configuration not stated), the TGI in the experiment with SW-620 colon, in the experiment with LOX IMVI melanoma, in the experiment on SF-295 CNS, with NCI-H522 lung, with KM12 colon and with OVCAR-3 ovarian was greater than 100 µM in each case. This compound also gave a concentration for total growth inhibition (TGI) with SF-539 CNS greater than 100 µM.

`NNC(=O)/C(=C/c1ccc(Cl)c(Cl)c1)NC(=O)c1ccccc1`: the TGI in the experiment with SW-620 colon, in the experiment with LOX IMVI melanoma, with SF-295 CNS, with KM12 colon and in the experiment on OVCAR-3 ovarian was greater than 100 µM throughout.

As usually defined, the TGI is the concentration giving total growth inhibition. A lower TGI goes with greater sensitivity of the cells. In general, GI50 refers to the concentration giving 50% growth inhibition.
